Assay results taken from US6713506B2, “Tea polyphenol esters and analogs thereof for cancer prevention and treatment” (University of South Florida, priority 2000, dated 2004).
“Also recorded” adds a separate entry of the source.

What was measured:
[1] = system: p27, IκB-α, ubiquitinated proteins, Bax in Jurkat T cells; test: Western blot of proteasome substrates in Jurkat T cells; type: cell-based, human; conditions: for levels of p27: intact Jurkat T cells, 1 or 10 μM, 12 h
Description: FIG. 5. Western blot analysis. A, Jurkat T cells are treated with 1 or 10 μM of EGCG or EGC for 12 h, or B, C, 25 μM of EGCG for various times, followed by Western blot assay using specific antibodies to p27, IκB-α, ubiquitin or actin, as indicated. MWs of IκB-α and actin are 40 and 43 kDa, respectively. The band of 56 kDa, indicated by an arrow in (B), is an ubiquitinated or phosphorylated form of IκB-α. The bands indicated in (C) are ubiquitin-containing proteins. D, LNCaP cells are treated with 1 or 10 μM of EGCG for 12 h. Western bot is performed as described above. E, F, Jurkat T cells are pretreated with 10 μg/ml cycloheximide for 2 hr, followed by co-incubation with 1 or 10 μM of EGCG for 8 or 12 hr as indicated. The p70 is a putative ubiquitinated p27-containing complex (An et al., 1998, Cell Death Differ 5: 1062-75).
FIG. 11. Western blot assay. Western blot assay is performed using specific antibodies to p27^Kip, Bax, poly(ADP-ribose) polymerase (PARP), or actin. Jurkat T cells are treated with 50 μg/ml of tannic acid for 4, 12 or 24 h. Cells are harvested and lysated using the whole lysis buffer (50 mM Tris-HCl, pH 8.0, 5 mM EDTA, 150 mM NaCl, 0.5% NP-40, 0.5 mM PMSF, and 0.5 mM DTT). Cell lysates (70 μg) are separated on a sodium dodecyl sulfate-polyacrylamide gel electrophoresis (SDS-PAGE), followed by Western blot analysis.
Western blot analysis—Western blot assay is performed as described previously (An et al., (1998) Cell Death Differ 5(12), 1062-75) using specific antibodies to p27^Kip (monoclonal; Pharmingen), IκB-α (polyclonal; Santa Cruz), ubiquitin (polyclonal; Sigma) or actin (polyclonal; Santa Cruz). In brief, Jurkat T or LNCaP cells are treated with EGCG or EGC in dose-response or time-dependent manner. Cells are harvested and lysated using the whole lysis buffer. Cell lysates (70 μg) are separated by a sodium dodecyl sulfate-polyacrylamide gel electrophoresis (SDS-PAGE) and then, electrophoretically transferred to a nitrocellulose membrane. Immunocomplexes are detected using the ECL detection reagents kit (Amersham, Piscataway, N.J.).

[2] = biological target: T1, purified calpain I (Homo sapiens, UniProt P07384); test: Calpain I activity assay; type: biochemical; conditions: for inhibition of purified calpain I activity (in words): 10 μM, FIG. 16A
T1 construct: 3 μg purified calpain I (Human Erythrocytes, Calbiochem) is incubated; purchased Calbiochem; host or cells: human erythrocytes (tissue-purified)
T1 sequence (P07384 1-714): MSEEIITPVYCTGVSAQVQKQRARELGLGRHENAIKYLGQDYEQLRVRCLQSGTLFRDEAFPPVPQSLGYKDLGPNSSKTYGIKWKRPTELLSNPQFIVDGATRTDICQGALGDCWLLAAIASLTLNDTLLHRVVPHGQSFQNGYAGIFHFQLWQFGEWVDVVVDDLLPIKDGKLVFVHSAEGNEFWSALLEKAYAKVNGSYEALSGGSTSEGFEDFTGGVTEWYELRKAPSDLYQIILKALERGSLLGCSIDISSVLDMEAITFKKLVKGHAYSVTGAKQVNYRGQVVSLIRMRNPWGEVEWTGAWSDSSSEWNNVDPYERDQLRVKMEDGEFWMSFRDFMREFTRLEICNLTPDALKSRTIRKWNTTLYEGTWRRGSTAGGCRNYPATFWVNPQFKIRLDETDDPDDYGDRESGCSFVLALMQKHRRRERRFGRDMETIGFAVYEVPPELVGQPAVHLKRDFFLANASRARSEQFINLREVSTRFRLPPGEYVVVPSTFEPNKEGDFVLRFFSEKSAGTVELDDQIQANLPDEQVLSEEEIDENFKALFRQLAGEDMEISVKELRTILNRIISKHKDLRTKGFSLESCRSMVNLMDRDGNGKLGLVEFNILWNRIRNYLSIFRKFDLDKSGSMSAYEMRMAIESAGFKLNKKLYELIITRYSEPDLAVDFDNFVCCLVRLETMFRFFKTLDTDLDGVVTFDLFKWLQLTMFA
T1 sequence (P04632 1-268 partner): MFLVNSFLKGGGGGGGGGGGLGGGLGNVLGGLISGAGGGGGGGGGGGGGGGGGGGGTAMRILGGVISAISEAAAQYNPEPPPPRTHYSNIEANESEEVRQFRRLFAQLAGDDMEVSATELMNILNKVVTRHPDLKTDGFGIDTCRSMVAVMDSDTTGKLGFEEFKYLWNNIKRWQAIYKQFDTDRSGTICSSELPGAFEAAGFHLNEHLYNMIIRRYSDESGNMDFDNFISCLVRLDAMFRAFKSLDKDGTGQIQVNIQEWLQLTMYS
Description: (§1) FIG. 8. […] A). […] Initially, 0.5 μg of purified 20S proteasome is incubated with 20 μM of a fluorogenic peptide substrate, Suc-Leu-Leu-Val-Tyr-AMC, for 30 min at 37° C. in 100 μl of assay buffer (20 mM Tris-HCl, pH 8.0) with various concentrations of tannic acid. After incubation, the reaction mixture is diluted to 200 μl with the assay buffer, followed by measurement of the hydrolyzed 7-amido-4-methyl-coumarin (AMC) groups using a fluorometer with an excitation filter of 380 nm and an emission filter of 460 nm. B). […] Tannic acid (0.3 μg/ml) and Glucose (180 μg/ml) are used in the proteasome activity assay as described above. C). […] Purified calpain I (3 μg) protein is incubated with 40 μM of a fluorogenic peptide substrate, Suc-Leu-Tyr-AMC, for 30 min at 37° C. in 100 μl of assay buffer (50 mM Tris-HCl, pH 7.5, containing 50 mM NaCl, 1 mM EDTA, 1 mM EGTA, 5 mM β-Mercaptoethanol, 5 mM CaCl2, and 0.1% CHAPS) in the absence (control) or presence of 5 μg/ml of tannic acid or 0.18 μg/ml of calpeptin (calpain inhibitor).

[3] = biological target: chymotrypsin-like activity of purified 20S proteasome (UniProt Q9P992); type: biochemical
Sequence of chymotrypsin-like activity of purified 20S proteasome (Q9P992 whole entry): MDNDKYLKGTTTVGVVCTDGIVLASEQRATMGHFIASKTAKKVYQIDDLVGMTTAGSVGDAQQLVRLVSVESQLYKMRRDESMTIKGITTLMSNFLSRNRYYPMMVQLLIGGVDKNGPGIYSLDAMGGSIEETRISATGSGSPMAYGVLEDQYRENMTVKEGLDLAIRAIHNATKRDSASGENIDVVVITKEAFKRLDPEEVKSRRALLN
Description: as §1
Inhibition of the proteasome activity in vitro by tea polyphenols—To measure the 20S proteasome chymotrypsin-like activity, 0.5 μg of a purified 20S proteasome (Calbiochem) is incubated with 20 μM of a fluorogenic peptide substrate, Suc-Leu-Leu-Val-Tyr-AMC (Calbiochem), for 30 min at 37° C. in 100 μl of assay buffer (20 mM Tris-HCl, pH 8.0), with or without tea polyphenols (purity >95%; Sigma) or tea extract. After incubation, the reaction mixture is diluted to 200 μl with the assay buffer, followed by measurement of the hydrolyzed 7-amido-4-methyl-coumarin (AMC) groups using a VersaFluor™ Fluorometer with an excitation filter of 380 nm and an emission filter of 460 nm (Bio-Rad).

[4] = Jurkat T cells, 25 μM EGCG, various times
[5] = cycloheximide-pretreated Jurkat T cells, 10 μM

SMILES | levels of IκB-α [1, 4] | levels of ubiquitinated proteins [1, 4] | levels of IκB protein [1, 5] | levels of p27 protein [1, 5] | level of p70 (putative ubiquitinated p27-containing protein) ([1]; cycloheximide-pretreated Jurkat T cells, co-incubation) | induction of IκB expression compared with LLnV ([1]; cycloheximide-pretreated Jurkat T cells, same concentration (10 μM)) | levels of p27 [1] | inhibition of purified calpain I activity (in words) [2] | inhibition of purified calpain activity (in words) ([2]; FIG. 3B: EGCG 10 μM, calpeptin 1 μM) | IC50 ([3]; read-out: IC50 towards the chymotrypsin-like activity of purified 20S proteasome) [nM] | fold less potent than EGCG ([3]; ratio of IC50 to EGCG) | p27Kip and Bax levels ([1]; Jurkat T cells, tannic acid 50 μg/ml, 4, 12 or 24 h) | inhibition of calpain activity (in words) ([2]; tannic acid 5 μg/ml) | inhibition of purified 20S proteasome chymotrypsin-like activity (in words) [3] | inhibition of chymotrypsin-like activity of the proteasome (in words) ([3]; tannic acid 0.3 μg/ml, glucose 180 μg/ml)
O=C(O[C@@H]1Cc2c(O)cc(O)cc2O[C@@H]1c1cc(O)c(O)c(O)c1)c1cc(O)c(O)c(O)c1 [EGCG, (−)-epigallocatechin-3-gallate] | increases | increases | increases | dramatically increased | increase | even greater than that of the proteasome inhibitor LLnV | greatly increases | Neither EGCG nor EGC at 10 μM inhibits | but not EGCG, is able to inhibit | 86 |  |  |  |  | 
Oc1cc(O)c2c(c1)O[C@H](c1cc(O)c(O)c(O)c1)[C@H](O)C2 [EGC, (−)-epigallocatechin] |  |  |  |  |  |  | does not | Neither EGCG nor EGC at 10 μM inhibits |  |  | 14,000 fold |  |  |  | 
O=C(OC[C@H]1O[C@@H](OC(=O)c2cc(O)c(O)c(OC(=O)c3cc(O)c(O)c(O)c3)c2)[C@H](OC(=O)c2cc(O)c(O)c(OC(=O)c3cc(O)c(O)c(O)c3)c2)[C@@H](OC(=O)c2cc(O)c(O)c(OC(=O)c3cc(O)c(O)c(O)c3)c2)[C@@H]1OC(=O)c1cc(O)c(O)c(OC(=O)c2cc(O)c(O)c(O)c2)c1)c1cc(O)c(O)c(OC(=O)c2cc(O)c(O)c(O)c2)c1 [tannic acid] |  |  |  |  |  |  |  |  |  |  |  | induction | does not inhibit | concentration-dependent; also recorded: inhibited | inhibited
